Experimental data published in patent US20250326769A1, “HETEROAROMATIC MACROCYCLIC ETHER CHEMOTHERAPEUTIC AGENTS” (Nuvalent, Inc., priority 2022, published 2025).

Columns and labels:
Assay type in all cases: cell-based
Ba/F3 EML4-ALK v1 I1171N = Ba/F3 EML4-ALK v1 I1171N (Homo sapiens (Human), UniProt Q9HC35+Q9UM73, I1171N); assay: Ba/F3 cell proliferation assay, EML4-ALK v1 I1171N; details: for IC50: Ba/F3 stable cells, 72 hours, CellTiter-Glo; for ETV6-TRKB / EML4-ALK v1 I1171N: TRKB selectivity, ratio of Ba/F3 IC50 values
Description: (§1) Genes encoding EML4-ALK v1 (variant 1), EML4-ALK v1 G1202R, EML4-ALK v1 I1171IN, EML4-ALK v1 D1203N, EML4-ALK v1 I1171N/D1203N, and ETV6-TRKB were synthesized at GeneRay, cloned into the retroviral construct pMSCV-puro (Biovector), and packaged into retroviral particles. The virus was used to infect Ba/F3 cells (RIKEN) at multiplicity of infection=1 for 1 day. Infected cells were rescued in media (RPMI-1640 with 10% fetal bovine serum and 1% streptomycin and penicillin) supplemented with mouse IL-3 (10 ng/mL) for 2 days, and stable cell lines were selected by IL-3 withdrawal and puromycin (0.8 μg/mL) for 7 days. Monoclones were selected by single-cell dilution in IL-3-free medium containing puromycin (0.8 μg/mL). Transformation of desired genes was confirmed by Sanger sequencing and western blot using the following antibodies: ALK (CST #3633) and pan-TRK (Abcam #76291).
(§2) Stable cells were plated in a 384-well plate. Test compounds were then added in a 3-fold dilution series and incubated for 72 hours. CellTiter-Glo reagent (Promega) was added. Luminescence was measured on a plate reader. Half-maximal inhibitory concentration (ICso) was calculated from percent inhibition and inhibitor concentration using four-parameter logistic regression. Compound potency can be interpreted by binning IC50 values: bin A for high potency, 0.1 nM IC50<50 nM; bin B for medium potency, 50 nM<IC50<500 nM; and bin C for low potency, IC50>500 nM. […] Exemplary data is given in Table 4 (nd is not determined).
(§3) Ba/F3 proliferation is driven by the transduced oncogenes in the same way that cancer cell proliferation in humans is driven by the expression of equivalent oncogenes.
(§4) TRKB selectivity was calculated by dividing a compound's TRKB potency by its primary target potency (e.g., ETV6-TRKB IC50/EML4-ALK v1 IC50). Compound selectivity can be interpreted by binning ratio values: bin A for very high selectivity, ratio≥30-fold; bin B for high selectivity, ratio≥10-fold but<30; bin C for moderate selectivity, ratio≥1 but<10; and bin D for low selectivity, ratio<1. […] (nd=not determined).

[1] = target: Ba/F3 EML4-ALK v1 I1171N/D1203N (Homo sapiens (Human), UniProt Q9HC35+Q9UM73, D1203N/I1171N); assay: Ba/F3 cell proliferation assay, EML4-ALK v1 I1171N/D1203N; details: for IC50: Ba/F3 stable cells, 72 hours, CellTiter-Glo; for ETV6-TRKB / EML4-ALK v1 I1171N/D1203N / Selectivity for Ba/F3 EML4-ALK v1 I1171N-D1203N IC50 over Ba/F3 ETV6-TRKB IC50: TRKB selectivity, ratio of Ba/F3 IC50 values; for Selectivity for Ba/F3 EML4-ALK v1 I1171N-D1203N IC50 over Ba/F3 ETV6-TRKB IC50: Table 6 bins
Description: as §1, §2, §3, §4
Additional exemplified compounds were also tested against ALK-INDN and TRKB. The TRKB selectivity was calculated by dividing a compound's TRKB potency by its primary target potency (e.g., ETV6-TRKB IC50/EMIL4-ALK I1171N-D1203N v1 IC50). Compound selectivity can be interpreted by binning ratio values: bin AA for the selectivity with the ratio≥30-fold; bin BB for the selectivity with the ratio≥10-fold but<30; bin CC for the selectivity with the ratio≥5 but<10; bin DD for the selectivity with the ratio≥1 but<5; and bin EE for the selectivity with the ratio<1.

Ba/F3 ETV6-TRKB = Ba/F3 ETV6-TRKB (Homo sapiens, UniProt Q16620); assay: Ba/F3 cell proliferation assay, ETV6-TRKB; details: Ba/F3 stable cells, 72 hours, CellTiter-Glo; read-out: ETV6-TRKB IC50
Description: as §1, §2, §3

Ba/F3 ETV6-TRKB, sequence (Q16620 32-822 limits assumed, change not shown): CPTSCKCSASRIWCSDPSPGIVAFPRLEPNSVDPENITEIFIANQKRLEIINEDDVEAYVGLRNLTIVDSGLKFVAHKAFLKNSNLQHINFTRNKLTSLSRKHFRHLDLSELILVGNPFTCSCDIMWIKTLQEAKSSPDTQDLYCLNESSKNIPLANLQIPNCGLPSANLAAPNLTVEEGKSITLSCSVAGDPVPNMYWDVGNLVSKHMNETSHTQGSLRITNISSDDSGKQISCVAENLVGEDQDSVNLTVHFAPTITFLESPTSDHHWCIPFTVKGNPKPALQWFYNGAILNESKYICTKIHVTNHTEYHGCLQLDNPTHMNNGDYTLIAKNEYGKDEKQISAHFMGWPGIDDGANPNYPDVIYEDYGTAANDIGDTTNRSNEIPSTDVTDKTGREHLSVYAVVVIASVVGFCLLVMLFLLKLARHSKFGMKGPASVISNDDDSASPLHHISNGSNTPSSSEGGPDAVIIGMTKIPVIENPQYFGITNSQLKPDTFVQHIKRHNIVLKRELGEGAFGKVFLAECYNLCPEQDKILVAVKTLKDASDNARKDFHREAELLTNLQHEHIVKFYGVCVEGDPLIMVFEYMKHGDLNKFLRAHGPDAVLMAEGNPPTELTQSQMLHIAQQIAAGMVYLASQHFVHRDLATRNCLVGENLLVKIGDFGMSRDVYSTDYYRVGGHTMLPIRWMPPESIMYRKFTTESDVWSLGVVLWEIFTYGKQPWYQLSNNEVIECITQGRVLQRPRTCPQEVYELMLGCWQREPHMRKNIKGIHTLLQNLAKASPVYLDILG
Ba/F3 EML4-ALK v1 I1171N/D1203N, sequence (Q9UM73 other isoform, or with tags, fused parts or gaps I1171N/D1203N): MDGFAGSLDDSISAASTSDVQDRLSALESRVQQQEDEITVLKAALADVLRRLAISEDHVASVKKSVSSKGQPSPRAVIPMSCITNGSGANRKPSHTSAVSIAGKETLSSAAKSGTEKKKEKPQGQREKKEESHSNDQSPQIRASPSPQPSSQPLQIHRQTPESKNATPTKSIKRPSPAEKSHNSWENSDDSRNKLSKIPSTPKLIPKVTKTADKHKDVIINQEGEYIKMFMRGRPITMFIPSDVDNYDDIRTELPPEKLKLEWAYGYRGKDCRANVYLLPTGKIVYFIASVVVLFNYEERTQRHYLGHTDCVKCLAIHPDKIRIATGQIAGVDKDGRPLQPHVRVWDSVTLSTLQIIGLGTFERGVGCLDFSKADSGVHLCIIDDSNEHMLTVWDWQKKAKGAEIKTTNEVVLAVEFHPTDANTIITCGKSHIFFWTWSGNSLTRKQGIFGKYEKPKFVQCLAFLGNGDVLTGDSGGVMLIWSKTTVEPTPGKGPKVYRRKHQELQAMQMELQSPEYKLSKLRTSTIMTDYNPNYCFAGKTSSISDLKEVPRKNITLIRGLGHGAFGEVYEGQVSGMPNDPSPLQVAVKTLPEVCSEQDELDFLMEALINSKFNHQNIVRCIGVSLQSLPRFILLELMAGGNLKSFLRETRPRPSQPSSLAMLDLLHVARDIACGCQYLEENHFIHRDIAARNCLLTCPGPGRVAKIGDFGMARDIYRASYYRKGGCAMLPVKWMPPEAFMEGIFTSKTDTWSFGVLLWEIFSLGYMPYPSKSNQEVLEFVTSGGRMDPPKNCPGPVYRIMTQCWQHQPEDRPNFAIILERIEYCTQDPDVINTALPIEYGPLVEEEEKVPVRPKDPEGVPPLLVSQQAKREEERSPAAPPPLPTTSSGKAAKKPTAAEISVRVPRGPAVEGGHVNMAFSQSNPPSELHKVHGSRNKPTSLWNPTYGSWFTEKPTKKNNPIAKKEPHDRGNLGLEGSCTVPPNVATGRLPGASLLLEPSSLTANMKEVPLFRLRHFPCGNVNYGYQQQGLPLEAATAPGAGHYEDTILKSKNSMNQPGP
Ba/F3 EML4-ALK v1 I1171N, sequence (Q9UM73 other isoform, or with tags, fused parts or gaps I1171N): as the sequence (Q9UM73 other isoform, or with tags, fused parts or gaps I1171N/D1203N) above, with N642D counted along it

Row | SMILES | IC50 (Ba/F3 EML4-ALK v1 I1171N) | IC50 [1] | IC50 (Ba/F3 ETV6-TRKB) | ETV6-TRKB / EML4-ALK v1 I1171N (Ba/F3 EML4-ALK v1 I1171N) | ETV6-TRKB / EML4-ALK v1 I1171N/D1203N [1] | Selectivity for Ba/F3 EML4-ALK v1 I1171N-D1203N IC50 over Ba/F3 ETV6-TRKB IC50 [1]
1 | C[C@H]1Oc2cc(cnc2N)-c2c(C#N)nn(C(=O)N(C)C)c2Cc2cccnc2-c2c(F)cc(F)cc21 [Example 71, N,N-dimethyl-(R)-23-amino-3-cyano-15,17-difluoro-20-methyl-21-oxa-4,5,12,24-tetraazapentacyclo[20.3.1.0^2,^6.0^8,^13.0^14,^19]hexacosa-1(25),2(6),3,8(13),9,11,14,16,18,22(26),23-undecaene-5-carboxamide] | 50 to 500 nM | 50 to 500 nM | > 500 nM | B (bin B for high selectivity, ratio≥10-fold but<30) | B (bin B for high selectivity, ratio≥10-fold but<30) | –
2 | C[C@H]1Oc2cc(cnc2N)-c2c(nn(C)c2C#N)C(=O)c2scnc2-c2c(F)cc(F)cc21 [Example 81, (R)-22-amino-14,16-difluoro-4-methyl-19-methyl-7-oxo-20-oxa-9-thia-4,5,11,23-tetraazapentacyclo[19.3.1.0^2,^6.0^8,^12.0^13,^18]pentacosa-1(24),2,5,8(12),10,13,15,17,21(25),22-decaene-3-carbonitrile] | 0.1 to 50 nM | 0.1 to 50 nM | > 500 nM | A (bin A for very high selectivity, ratio≥30-fold) | A (bin A for very high selectivity, ratio≥30-fold) | –
3 | C[C@H]1Oc2cc(cnc2N)-c2c(n[nH]c2C#N)C(=O)c2cccnc2-c2c(F)cc(F)cc21 [Example 77, (R)-23-amino-15,17-difluoro-20-methyl-7-oxo-21-oxa-4,5,12,24-NH2 tetraazapentacyclo[20.3.1.0^2,6.0^8,13.0^14,19]hexacosa-1(25),2,5,8,10,12,14,16,18,22(26),23-undecaene-3-carbonitrile] | 0.1 to 50 nM | 0.1 to 50 nM | 50 to 500 nM | B (bin B for high selectivity, ratio≥10-fold but<30) | A (bin A for very high selectivity, ratio≥30-fold) | –
4 | C[C@H]1Oc2cc(cnc2N)-c2c(nn(C)c2C#N)C(=O)c2cccnc2-c2c(F)cc(F)cc21 [Example 21, (R)-23-amino-15,17-difluoro-4-methyl-20-methyl-7-oxo-21-oxa-4,5,12,24-tetraazapentacyclo[20.3.1.0^2,^6.0^8,^13.0^14,^19]hexacosa-1(25),2,5,8,10,12,14,16,18,22(26),23-undecaene-3-carbonitrile] | 0.1 to 50 nM | 0.1 to 50 nM | 50 to 500 nM | B (bin B for high selectivity, ratio≥10-fold but<30) | A (bin A for very high selectivity, ratio≥30-fold) | AA (bin AA for the selectivity with the ratio≥30-fold)
5 | C[C@H]1Oc2nc(cnc2N)-c2c(nn(C)c2C#N)C(=O)c2cccnc2-c2c(F)cc(F)cc21 [Example 82, (R)-23-amino-15,17-difluoro-4-methyl-20-methyl-7-oxo-21-oxa-4,5,12,24,26-pentaazapentacyclo[20.3.1.0^2,6.0^8,13.0^14,19]hexacosa-1(25),2,5,8(13),9,11,14,16,18,22(26),23-undecaene-3-carbonitrile] | 0.1 to 50 nM | 0.1 to 50 nM | 50 to 500 nM | C (bin C for moderate selectivity, ratio≥1 but<10) | A (bin A for very high selectivity, ratio≥30-fold) | –
6 | C[C@H]1Oc2cc(cnc2N)-c2c(c(C(=O)N(C)C)nn2C2CCC2)Cc2cccnc2-c2ccc(F)cc21 [Example 48, N,N-dimethyl-(R)-23-amino-3-cyclobutyl-17-fluoro-20-methyl-21-oxa-3,4,12,24-tetraazapentacyclo[20.3.1.0^2,^6.0^8,^13.0^14,^19]hexacosa-1(25),2(6),4,8(13),9,11,14,16,18,22(26),23-undecaene-5-carboxamide] | 0.1 to 50 nM | 0.1 to 50 nM | 50 to 500 nM | – | – | –
7 | CCn1nc(C(=O)N(C)C)c2c1-c1cnc(N)c(c1)O[C@H](C)c1cc(F)cc(F)c1-c1ncccc1C2 [Example 46, N,N-dimethyl-(R)-23-amino-3-ethyl-15,17-difluoro-20-methyl-21-oxa-3,4,12,24-tetraazapentacyclo[20.3.1.0^2,^6.0^8,^13.0^14,^19]hexacosa-1(25),2(6),4,8(13),9,11,14,16,18,22(26),23-undecaene-5-carboxamide] | 50 to 500 nM | 0.1 to 50 nM | 50 to 500 nM | C (bin C for moderate selectivity, ratio≥1 but<10) | B (bin B for high selectivity, ratio≥10-fold but<30) | –

Continued, in another order:

Row | IC50 (Ba/F3 EML4-ALK v1 I1171N) | IC50 [1] | IC50 (Ba/F3 ETV6-TRKB) | SMILES | ETV6-TRKB / EML4-ALK v1 I1171N (Ba/F3 EML4-ALK v1 I1171N) | ETV6-TRKB / EML4-ALK v1 I1171N/D1203N [1] | Selectivity for Ba/F3 EML4-ALK v1 I1171N-D1203N IC50 over Ba/F3 ETV6-TRKB IC50 [1]
8 | 50 to 500 nM | 0.1 to 50 nM | > 500 nM | C[C@H]1Oc2cc(cnc2N)-c2c(nn(C)c2C#N)C(=O)c2cn(C)nc2-c2c(F)cc(F)cc21 [Example 26, (R)-22-amino-14,16-difluoro-4,10-dimethyl-19-methyl-7-oxo-20-oxa-4,5,10,11,23-pentaazapentacyclo[19.3.1.0^2,^6.0^8,^12.0^13,^18]pentacosa-1(24),2,5,8,11,13,15,17,21(25),22-decaene-3-carbonitrile] | A (bin A for very high selectivity, ratio≥30-fold) | A (bin A for very high selectivity, ratio≥30-fold) | AA (bin AA for the selectivity with the ratio≥30-fold)
9 | 50 to 500 nM | > 500 nM | > 500 nM | C[C@H]1Oc2cc(cnc2N)-c2c(c(C#N)nn2CC2CC2)Cc2cn(C)nc2-c2ccc(F)cc21 [Example 1, (19R)-22-amino-3-(cyclopropylmethyl)-16-fluoro-10,19-dimethyl-20-oxa-3,4,10,11,23-pentaazapentacyclo[19.3.1.0^2,6.0^8,12.0^13,18]pentacosa-1(24),2(6),4,8,11,13,15,17,21(25),22-decaene-5-carbonitrile] | B (bin B for high selectivity, ratio≥10-fold but<30) | C (bin C for moderate selectivity, ratio≥1 but<10) | –
10 | 0.1 to 50 nM | 0.1 to 50 nM | 50 to 500 nM | CC(C)n1nc2c(c1C#N)-c1cnc(N)c(c1)O[C@H](C)c1cc(F)ccc1-c1ncccc1C2=O [Example 51, (R)-23-amino-17-fluoro-4-isopropyl-20-methyl-7-oxo-21-oxa-4,5,12,24-tetraazapentacyclo[20.3.1.0^2,^6.0^8,^13.0^14,^19]hexacosa-1(25),2,5,8,10,12,14,16,18,22(26),23-undecaene-3-carbonitrile] | A (bin A for very high selectivity, ratio≥30-fold) | A (bin A for very high selectivity, ratio≥30-fold) | AA (bin AA for the selectivity with the ratio≥30-fold)
11 | > 500 nM | 50 to 500 nM | 50 to 500 nM | CCn1ncc2c1-c1cnc(N)c(c1)O[C@H](C)c1cc(F)ccc1-c1nn(C)cc1C2=O [Example 15, (R)-22-amino-3-ethyl-16-fluoro-10-methyl-19-methyl-20-oxa-3,4,10,11,23-pentaazapentacyclo[19.3.1.0^2,^6.0^8,^12.0^13,^18]pentacosa-1(24),2(6),4,8,11,13,15,17,21(25),22-decaen-7-one] | D (bin D for low selectivity, ratio<1) | C (bin C for moderate selectivity, ratio≥1 but<10) | DD (bin DD for the selectivity with the ratio≥1 but<5)
12 | 50 to 500 nM | 0.1 to 50 nM | > 500 nM | C[C@H]1Oc2cc(cnc2N)-c2c(nn(C)c2CC2CC2)C(=O)c2cccnc2-c2ccc(F)cc21 [Example 53, (R)-23-amino-3-(cyclopropylmethyl)-17-fluoro-4-methyl-20-methyl-21-oxa-4,5,12,24-tetraazapentacyclo[20.3.1.0^2,^6.0^8,^13.0^14,^19]hexacosa-1(25),2,5,8,10,12,14,16,18,22(26),23-undecaen-7-one] | B (bin B for high selectivity, ratio≥10-fold but<30) | A (bin A for very high selectivity, ratio≥30-fold) | –
